From patent US20200010519A1, “NUCLEASE FUSIONS FOR ENHANCING GENOME EDITING BY HOMOLOGY-DIRECTED TRANSGENE INTEGRATION” (INSTITUT NATIONAL DE LA SANTE ET DE LA RECHERCHE …, priority 2017, published 2020)

Legend:
[1] = system: JAK and PCSK genes, AAVS1 locus; assay: Indel mutation patterns, all three guide RNAs taken together, HEK293 cells; format: cell-based, human; conditions: compared to Cas9, three guide RNAs
JAK (spacer 54) = assay: Indel mutation patterns by deep sequencing of PCR amplicons, HEK293 cells; format: cell-based, human

O=c1cc(N2CCOCC2)oc2c(-c3cccc4c3sc3ccccc34)cccc12 [NU7441]
indels with increased frequency that were deletions flanked by micro-homologies of 2 or more nucleotides [1]: 10 out of 12 | reduction of the two most frequent mutations observed with Cas9 (JAK (spacer 54)): 10 fold
